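Cultured in 96-well plates, cells were exposed to test compound for 48 hours across five concentrations. Abbreviation: GI50, concentration required for 50% inhibition of growth.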 The source made the active and inactive calls. Cut-off read from the data, not from the text of the source: active = GI50 up to about 1.1 µM and inactive = higher.
Key:
Assay in all cases: NCI anticancer screen, dose series, 48 h
HT-29 = tested on: HT-29
XF498 = tested on: XF498
HOP-62 = tested on: HOP-62
HOP-18 = tested on: HOP-18
U-251 = tested on: U-251
SNB-75 = tested on: SNB-75
COLO 205 = tested on: COLO 205
UACC-257 = tested on: UACC-257
OVCAR-3 = tested on: OVCAR-3
IGROV-1 = tested on: IGROV-1
786-0 = tested on: 786-0
A498 = tested on: A498
HCT-15 = tested on: HCT-15
UACC-62 = tested on: UACC-62
NCI-H460 = tested on: NCI-H460
M14 = tested on: M14
ACHN = tested on: ACHN
TK-10 = tested on: TK-10
KM12 = tested on: KM12
SF-295 = tested on: SF-295
NCI-H23 = tested on: NCI-H23
SK-MEL-5 = tested on: SK-MEL-5
SK-MEL-2 = tested on: SK-MEL-2
SF-539 = tested on: SF-539
SNB-78 = tested on: SNB-78
A549 = tested on: A549
MOLT-4 = tested on: MOLT-4
HCC 2998 = tested on: HCC 2998
CCRF-CEM = tested on: CCRF-CEM
Malme-3M = tested on: Malme-3M
SK-OV-3 = tested on: SK-OV-3
SW-620 = tested on: SW-620
RXF 393 = tested on: RXF 393
DLD-1 = tested on: DLD-1
OVCAR-8 = tested on: OVCAR-8
RXF 631 = tested on: RXF 631
DMS-273 = tested on: DMS-273
CAKI-1 = tested on: CAKI-1
SF-268 = tested on: SF-268
LOX IMVI = tested on: LOX IMVI
SN12C = tested on: SN12C
OVCAR-5 = tested on: OVCAR-5
HL-60 = tested on: HL-60
EKVX = tested on: EKVX
OVCAR-4 = tested on: OVCAR-4
SNB-19 = tested on: SNB-19
LXFL 529 = tested on: LXFL 529
DMS-114 = tested on: DMS-114
UO-31 = tested on: UO-31
M19-MEL = tested on: M19-MEL
RPMI-8226 = tested on: RPMI-8226
KM-20L2 = tested on: KM-20L2
K562 = tested on: K562
HCT-116 = tested on: HCT-116
SK-MEL-28 = tested on: SK-MEL-28
SR = tested on: SR
NCI-H226 = tested on: NCI-H226
HOP-92 = tested on: HOP-92
NCI-H522 = tested on: NCI-H522

Measured: GI50

CC(C)(C)[Si](C)(C)O/N=C\c1ccc(O[Si](C)(C)C(C)(C)C)cc1
33.3 µM: HCT-15
inactive: HT-29 64.4 µM | XF498 31.8 µM | HOP-62 > 100 µM | HOP-18 > 100 µM | U-251 25.2 µM | SNB-75 72.1 µM | COLO 205 > 100 µM | UACC-257 > 100 µM | OVCAR-3 20.2 µM | IGROV-1 > 100 µM | 786-0 38.5 µM | A498 52.4 µM | UACC-62 > 100 µM | NCI-H460 > 100 µM | M14 62.1 µM | ACHN 37.6 µM | TK-10 > 100 µM | KM12 > 100 µM | SF-295 52.5 µM | NCI-H23 > 100 µM | SK-MEL-5 > 100 µM | SK-MEL-2 > 100 µM | SF-539 42.5 µM | SNB-78 > 100 µM | A549 92.7 µM | MOLT-4 41.3 µM | HCC 2998 36.8 µM | CCRF-CEM 49.8 µM | Malme-3M > 100 µM | SK-OV-3 > 100 µM | SW-620 > 100 µM | RXF 393 24.5 µM | DLD-1 > 100 µM | OVCAR-8 62.8 µM | RXF 631 24 µM | DMS-273 > 100 µM | CAKI-1 > 100 µM | SF-268 49.5 µM | LOX IMVI 21.3 µM | SN12C 61.2 µM | OVCAR-5 44.1 µM | HL-60 36.5 µM | EKVX > 100 µM | OVCAR-4 > 100 µM | SNB-19 72.4 µM | LXFL 529 84.9 µM | DMS-114 25.9 µM | UO-31 50.9 µM | M19-MEL 41.3 µM | RPMI-8226 57.5 µM | KM-20L2 44.7 µM | K562 45.9 µM | HCT-116 24.2 µM

Cc1cc2c(C(C)C)c(O)c(O)c(/C=N\CCO)c2c(O)c1-c1c(C)cc2c(C(C)C)c(O)c(O)c(/C=N/CCO)c2c1O
1.51 µM: HCT-15
active: SR 1.1 µM | NCI-H460 1.12 µM | KM12 0.74 µM | MOLT-4 0.527 µM | CCRF-CEM 0.653 µM | K562 1.02 µM
inactive: SK-MEL-28 1.67 µM | HT-29 2.28 µM | XF498 2.87 µM | HOP-62 2.6 µM | HOP-18 1.91 µM | U-251 1.21 µM | SNB-75 2.67 µM | COLO 205 1.63 µM | UACC-257 2.32 µM | OVCAR-3 2.02 µM | IGROV-1 1.91 µM | 786-0 2.1 µM | NCI-H226 2.51 µM | A498 3.36 µM | UACC-62 2.74 µM | M14 1.83 µM | ACHN 3.37 µM | TK-10 6.4 µM | SF-295 2.15 µM | NCI-H23 1.76 µM | SK-MEL-5 1.73 µM | SK-MEL-2 3.15 µM | SF-539 2.54 µM | HOP-92 1.75 µM | SNB-78 3.24 µM | A549 1.21 µM | HCC 2998 2.9 µM | Malme-3M 2.47 µM | SK-OV-3 3.37 µM | NCI-H522 2.04 µM | SW-620 3.83 µM | RXF 393 3.56 µM | DLD-1 3.33 µM | OVCAR-8 3.3 µM | RXF 631 2.33 µM | DMS-273 1.62 µM | CAKI-1 5.24 µM | SF-268 1.39 µM | LOX IMVI 1.64 µM | SN12C 2.84 µM | OVCAR-5 3.66 µM | HL-60 2.43 µM | EKVX 2.28 µM | OVCAR-4 3.6 µM | SNB-19 2.05 µM | LXFL 529 1.64 µM | DMS-114 1.23 µM | UO-31 3.44 µM | M19-MEL 1.86 µM | RPMI-8226 1.19 µM | HCT-116 1.67 µM
